Source: US10821177B2, “Induction of differential stress resistance and uses thereof” (University of Southern California, priority 2007, dated 2020)
“Also recorded” adds a separate entry of the source. Read-outs that look alike come from different tables or passages of the source.

Tests used:
[1] = test system: primary rat mixed glial cells
Procedure: (§5) Primary mixed glial cells were obtained from the cerebral cortex of 1 to 3 day old Sprague Dawley rat pups (Charles River) as described before. Cells cultured for 10-14 days in DMEM/F12 medium with 10% fetal bovine serum (FBS) were used in assays. C6, A10-85, 9L and RG2 rat glioma cell lines and LN229 human glioma cell line and SH-SY5Y human neuroblastoma cell line were maintained in DMEM/F12 medium with 10% FBS at 37° C. under 5% CO2.
(§6) Cells were seeded into 96-well microliter plates at 20,000-30,000 cells/well and incubated for 2 days. Cells were washed with phosphate buffered saline (PBS) prior to treatments as indicated in the text. All treatments were performed at 37° C. under 5% CO2.
Glucose restriction was done by incubating cells in glucose free DMEM (Invitrogen) supplemented with either low glucose (0.5 gL) or normal glucose (1.0 gL) for 24 hours. Serum restriction was done by incubating cells in DMEMIF12 with either 10% or 1% FBS for 24 hours. […]
(§7) Cytotoxicity was measured by either LDH release using the CytoTox 96 Non-Radioactive Cytotoxicity Assay kit (Promega) or the ability to reduce methylthiazolyldiphenyltetrazolium bromide (MTT). % LDH release was determined with reference to the maximum and background LDH release of control cells. […]
Cyclophosphamide (CP, Sigma) was used for in vitro chemotherapy studies. […] Cytotoxicity was measured by either lactate dehydrogenase released using the CytoTox 96 Non-Radioactive Cytotoxicity Assay kit (Promega) or the ability to reduce methylthiazolyldiphenyl-tetrazolium bromide (MTT). LDH released into the medium by lysed cells were measured with a 10-minute enzymatic assay that converts a tetrazolium salt (INT) into a red formazan product. A 96-well based colorimetric assay measured the amount of the red formazan formed, which is proportional to the number of dead cells. % LDH release was determined with reference to the maximum and background LDH release of control cells.

[2] = test system: LID mice; conditions: for mortality: 500 mg/kg cyclophosphamide i.p.
Procedure: Thirty-four to forty-two-week old LID and their control L/L-mice were used to evaluate the role of circulating liver-derived IGF-I in stress resistance. LID and L/L-mice were generated using the Cre/loxP system as described before. […] All mice were individually caged throughout the experiment and had access to food and water ad libitum. Both LID and L/L-mice were each injected 500 mg/kg of cyclophosphamide i.p. using 29G insulin syringes. Cyclophosphamide was prepared in saline at 40 mg/ml and warmed prior to injection. Mice were routinely monitored for weight loss and signs of pain and stress. Survival time was the main criterion for determining the effect of low circulating IGF-I on the resistance to high-dose cyclophosphamide. The statistical significance of differential survival between experimental groups was determined by Kaplan-Meier curves and log-rank test using GraphPad Prism 4 software (San Diego, Calif.).

[3] = test system: C6 glioma cells; test: Cyclophosphamide cytotoxicity by LDH release in C6 glioma cells; assay type: cell-based, rat
Procedure: as §5, §6
Glucose restriction was done by incubating cells in glucose free DMEM (Invitrogen) supplemented with either low glucose (0.5 gL) or normal glucose (1.0 gL) for 24 hours. Serum restriction was done by incubating cells in DMEMIF12 with either 10% or 1% FBS for 24 hours. IGF-I treatment was carried out by incubating cells for 48 hours in DMEM/F12 with 1% FBS and rhIGF-I (100 n g/ml, ProSpec-Tany TechnoGene, Rehovot, Israel), which is shown to be within the IGF-I level range for middle age humans. To antagonize IGF-I receptor activity, cells were incubated with neutralizing monoclonal anti-IGF-IR antibody (aIR3, 1 pg/ml; Calbiochem) in DMEM/F12 1% FBS for 24 hours.
as §7
Cyclophosphamide (CP, Sigma) was used for in vitro chemotherapy studies. […] Cytotoxicity was measured by either lactate dehydrogenase released using the CytoTox 96 Non-Radioactive Cytotoxicity Assay kit (Promega) or the ability to reduce methylthiazolyldiphenyl-tetrazolium bromide (MTT). LDH released into the medium by lysed cells were measured with a 10-minute enzymatic assay that converts a tetrazolium salt (INT) into a red formazan product.

[4] = test system: primary rat mixed glial cells; test: Cyclophosphamide cytotoxicity by LDH release (serum restriction, IGF-I, aIR3) in primary glia; assay type: cell-based; conditions: 15 mg/ml CP, 10% serum
Procedure: as §5
Cells were seeded into 96-well microliter plates at 20,000-30,000 cells/well and incubated for 2 days. Cells were washed with phosphate buffered saline (PBS) prior to treatments as indicated in the text. All treatments were performed at 37° C. under 5% CO2. […]
as §7
Cyclophosphamide (CP, Sigma) was used for in vitro chemotherapy studies. […] Cytotoxicity was measured by either lactate dehydrogenase released using the CytoTox 96 Non-Radioactive Cytotoxicity Assay kit (Promega) or the ability to reduce methylthiazolyldiphenyl-tetrazolium bromide (MTT). […]

[5] = test system: S. cerevisiae; assay type: cell-based; conditions: 48-hour treatment with CP (0.1 M), strains treated separately
Procedure: Overnight cultures were diluted to OD600 0.1 into SDC medium. After 24 hours (day I), the appropriate strains were mixed 1:1 based on OD600 and incubated for 2 hours. […] For treatment SDC, MMS was introduced directly into the mixed culture to a final concentration of 0.01%. However, due to the high concentration of CP (0.1 M) used, CP was dissolved directly into the medium. To do so, mixed cultures were centrifuged for 5 minutes at 2,500 rpm and the media was collected, in which CP was dissolved to a concentration of 0.1 M. The mixed culture was then resuspended in the CP-containing medium. For treatments in water (STS), mixed cultures were centrifuged for 5 minutes at 2,500 rpm and the media was replaced with either distilled/sterile water or drug-dissolved water. Viability was measured by quantifying colony-forming units (CFUs) every 24 hours by plating onto appropriate selective media. Viability of individual strains was measured using the same method as for the mixed cultures.

[6] = test system: sch9/aktΔ; test: Yeast viability (CFU) in mixed cultures, chronic MMS treatment, sch9/aktΔ cells; assay type: cell-based, S. cerevisiae; conditions: 48-hour treatment, 0.01% MMS, mixed culture
Procedure: (§1) Overnight cultures were diluted to OD600 0.1 into SDC medium. After 24 hours (day I), the appropriate strains were mixed 1:1 based on OD600 and incubated for 2 hours. The mixed cultures were then treated with either cyclophosphamide (CP, 0.1 M) or […] (MMS, 0.01%, Sigma) in medium or water (STS). For treatment SDC, MMS was introduced directly into the mixed culture to a final concentration of 0.01%. However, due to the high concentration of CP (0.1 M) used, CP was dissolved directly into the medium. To do so, mixed cultures were centrifuged for 5 minutes at 2,500 rpm and the media was collected, in which CP was dissolved to a concentration of 0.1 M. The mixed culture was then resuspended in the CP-containing medium. […] Viability was measured by quantifying colony-forming units (CFUs) every 24 hours by plating onto appropriate selective media. Viability of individual strains was measured using the same method as for the mixed cultures.
(§2) Overnight SDC cultures were diluted to OD600 0.1 into fresh SDC medium. […] Viability was measured as colony-forming units (CFUs) every 24 hours by plating onto appropriate selective media. Viability of individual strains was measured using the same method as for the mixed cultures. Relative survival shown was determined by the percentage of the ratio between the treated and untreated (control) cells.

[7] = test system: sch9/aktΔRAS2^val19 cells; test: Yeast viability (CFU) in mixed cultures, chronic MMS treatment, RAS2val19-expressing cells; assay type: cell-based, S. cerevisiae; conditions: 48-hour treatment, 0.01% MMS
Procedure: as §1, §2

[8] = test system: cortical neurons from E18 rat embryos; conditions: pre-treatment with inhibitor
Procedure: FIG. 23. […] Cortical neurons from E18 rat embryos were cultured onto 96-well plates (A) or glass coverslips in 6-well plates (B). On 10-14 DIV, the neurons were pre-treated with MEK1/ERK1/2 inhibitors U0126 or SL327. Oxidative stress was induced by hydrogen peroxide or menadione. Cell viability was measured with MTT survival assay (A) or live/dead assay (B). C) % death was calculated from the number of dead (red) and live (green) cells.

[9] = test system: PC12 cells; test: IGF-I and paraquat oxidative toxicity, MTT, PC12 cells; assay type: cell-based, rat; conditions: 100 ng/ml IGF-I 24 hr, 100 μM paraquat
Procedure: (§3) FIG. 12. […] Primary rat cortical neurons or PC12 cells incubated in 1% serum and 4 g/L glucose were treated for 24 hr with vehicle, 100 μM of paraquat, 100 ng/ml of IGF-I followed by 100 μM of paraquat, or 100 ng/ml of IGF-1 alone and were then subjected to MTT reduction activity assay to assess cell viability. Data from 4 independent experiments are normalized to control and expressed as the mean±S.E.M.
(§4) Primary rat neurons and PC12 cells were treated with IGF-1 and paraquat to determine the effect of IGF-1 on oxidative stress. Cortical neurons were treated for 24 hours in Eagle's minimal essential medium (Invitrogen) supplemented with 21 mM glucose and 1% horse serum. PC12 cells were plated at 5×10^4 cells/well onto poly-D-lysine coated. 96-well plates and were grown for 24 hours in F12K 1% HS. Both types of cells were then treated with either 100 μM of paraquat, IGF-1 (100 ng/ml) followed 30 minutes later by paraquat (100 μM) or IGF-1 (100 ng/ml) alone in appropriate media. Survival was determined by the MTT assay and presented as percent ratio of treated to control.

[10] = test system: primary rat cortical neurons; test: IGF-I and paraquat oxidative toxicity, MTT, cortical neurons; assay type: cell-based; conditions: 100 ng/ml IGF-I 24 hr, 100 μM paraquat
Procedure: as §3
Primary neurons from embryonic day 18 Sprague-Dawley rat cerebral cortices were dissociated in neurobasal medium (Invitrogen) supplemented with 0.5 mM L-glutamine, 25 μM L-glutamic acid and 2% B-27 and plated at 640 cells/mm^2 in 96-well plates which were pre-coated with 10 microg/ml poly-D-lysine dissolved in Borax buffer (0.15 M, pH 8.4). Neurons were maintained at 37° C. in 5% CO2 in neurobasal medium supplemented with B-27 and 0.5 mM L-glutamine for 4 days.
as §4, with “Both types of cells were then treated with either 100 μM of paraquat, IGF-1 (100 ng/ml) followed 30 minutes later by paraquat (100 μM) or IGF-1 (100 ng/ml) alone in appropriate media.” left out

Compound: O=P1(N(CCCl)CCCl)NCCCO1 (stereo not drawn) [CP, cyclophosphamide]
- glial cells resistant ([1]; 12 mg/ml CP, 0.5 g/L glucose): 80%
- cells that survived ([1]; 12 mg/ml CP, 1 g/L glucose): 20%
- differential stress resistance of mammalian cells by the starvation-response methods ([1]; normal vs cancer cells): less than 10 fold
- average weight loss ([2]; LID mice, 500 mg/kg cyclophosphamide): 10%
- mortality ([2]; LID mice): 30%
- weight loss ([2]; control mice, 500 mg/kg cyclophosphamide): 20%
- mortality ([2]; control mice): 70%
- signs of toxicity in surviving mice ([2]; surviving LID mice): did not show any signs of toxicity
- toxicity to C6 glioma cells in 10% serum versus 1% serum ([3]; 15 mg/ml CP): as toxic
- toxicity to primary glial cells [4]: toxic
- toxicity to RAS2^val19 and wild type cells [5]: toxic

Compound: COS(C)(=O)=O [MMS, methyl methanesulfonate]
- sch9/aktΔ cells that survived [6]: great majority
- sch9/aktΔRAS2^val19 cells that survived ([7]; mixed culture (Example I)): none
- sch9/aktΔRAS2^val19 cells that survived ([7]; mixed culture (Example II)): less than 5%

Compound: N#CC(=C(/N)Sc1ccccc1N)/C(C#N)=C(\N)Sc1ccccc1N [U0126]
- resistance of neurons to oxidative stress (hydrogen peroxide or menadione) [8]: protects neurons against oxidative stress

Compound: IGF-I: rhIGF-I (ProSpec-Tany TechnoGene), 100 ng/ml
- increase in the toxicity of CP to C6 glioma cells ([3]; 100 ng/ml IGF-I): minor increase; also recorded: did not increase
- sensitization to oxidative toxicity [9]: not in PC12 cells
- sensitization to oxidative toxicity [10]: sensitizes
